{
  "source": "patent US20220160703A1",
  "about": "“TUMOR-SELECTIVE COMBINATION THERAPY” (The Board of Regents of The University of Texas System, priority 2019, published 2022)",
  "key": {"[1]": {"assay": "Methemoglobinemia and weight loss", "type": "in vivo", "conditions": "MC38 tumor bearing mice, 10 Gy + β-lap"}, "HMGB1": {"test_system": "HMGB1", "assay": "HMGB1 release detection (ELISA)", "type": "cell-based, murine", "conditions": "NQO1+ tumor cells (MC38, TC-1, NQO1-overexpressing B16), β-lap 3 hr, 24 hr later", "experimental": "FIGS. 5A-F. β-Lap treatment-induced HMGB1 release enhances tumor immunogenicity and triggers antitumor T cell immunity in vivo. (FIG. 5A) MC38, TC-1 and B16 (NQO null and overexpression clones) were treated with β-lap for 3 hr followed by washing and replacing medium. The level of HMGB1 released into the culture supernatant was determined by ELISA 24 hr later. (FIG. 5B) The research schema for in vivo cross-presentation of tumor specific antigen from β-lap-induced dying tumor cells in FIG. 5C and FIG. 5D. (FIGS. 5C-D) Live or β-lap-induced dying MC38-OVA cells were subcutaneously inoculated into the flank of WT or Tlr4^−/− C57BL/6 (n=3-4/group) mice along with or without anti-HMGB1 antibody. […] IFNγ producing cells were determined by ELISPOTs assay (FIG. 5C), and IFNγ secretion level was quantified by CBA mouse IFNγ assay (FIG. 5D). […] Data are shown as mean±SEM from at least two to three independent experiments. *P<0.05, **P<0.01, and ***P<0.001 determined by two-way ANOVA (FIG. 5C and FIG. 5D) or log-rank test (FIG. 5F).\nFIGS. 25A-E. IB-DNQ induces tumor ICD and dendritic cell-mediated T cell cross-priming. […] MC38, MC38 NOQ1^−/−, B16, and B16 NOQ1^+ cells were treated with IB-DNQ for 4 h followed by replacing medium and growth for 24 h, culture supernatant was collected and HMGB1 levels were determined by ELISA. […]"}, "ROS": {"test_system": "ROS", "assay": "Cellular ROS / H2O2 detection", "type": "cell-based, murine", "conditions": "for ROS level: 3 hr, DCFDA", "experimental": "(FIG. 1A) NQO1 positive tumor cell lines MC38, TC-1 and Ag104Ld and NQO1 negative cell lines Panc02 and B16 grown in 48-well plates were treated with β-lap (0-8 μM) for a 3 hr followed by washing and replacing medium. Cell viability was determined by Sulforhodamine B (SRB) Assay 4 days later. […] (FIG. 1C) MC38 cells with CRISPR-based NQO1 Knockout (MC38 NQO1KO #5) planted in 96-well plates were exposed to β-lap for 3 hr and cell survival was assessed 48 hr later. […] (FIG. 1E) MC38 cells were exposed to a lethal dose of β-lap (4 μM) for indicated times, then stained with 7-AAD and Annexin V followed by flow cytometry analysis. […] (FIG. 1H) MC38 and B16 NQO1 #1 cells were exposed to β-lap for a 3 hr. Catalase (1000 U/ml) was added and cell survival was assessed 48 hr later. (FIG. 1I) C57BL/6 mice (n=5/group) were transplanted with MC38 cells and treated with β-lap (0.03 mg, 0.1 mg or 0.3 mg, intratumorally; or 25 mg/kg, i.v.) every other day for four times. (FIG. 1J) C57BL/6 mice were transplanted with MC38 cells (NQO1 WT or KO, n=5/group) and treated with β-lap (0.3 mg, i.t.) every other day for four times. Tumor growth was monitored twice a week.\n(FIG. 8A) NQO1 expression in multiple murine tumor lines was immunoblotted as indicated. (FIG. 8B) NQO1^+ cells (MC38, TC-1, and Ag104Ld) and NQO1^− cells (B16 and Pan02) were treated for 3 h with β-lap±DIC (50 μM). Drugs were removed and survival assessed 5 days later. (FIG. 8C) Relative H2O2 levels were assessed in various cells treated with β-lap for 3 h at the indicated doses using CellRox-Glo. Values were normalized to DMSO-treated control cells. (FIG. 8D) TC-1 cells exposure to β-lap for 12 h, later PARP-1 and Caspase-3 levels were analyzed by western blotting assay. […]\n(FIG. 21A) Viability of murine cell lines following IB-DNQ treatment for 4 h. […] (FIGS. 21D-E) DNA double strand break was assessed via comet assay (FIG. 21D) and γH2AX foci/nuclei immunofluorescence (FIG. 21E). (FIG. 21F) MC38 cell death after a 4 h exposure to IB-DNQ was determined by 7AAD and Annexin V staining using flow cytometry analysis."}},
  "data": [
    {"smiles": "CC1(C)CCC2=C(O1)c1ccccc1C(=O)C2=O", "note": "[β-lap, β-lapachone]", "values": [
      {"measurement": "methemoglobinemia or weight loss", "setting": "[1]", "value": "no significant methemoglobinemia or weight loss"},
      {"measurement": "HMGB1 secretion", "setting": "HMGB1", "value": "dose-dependent secretion of HMGB1"},
      {"measurement": "H2O2 level", "setting": "ROS; NQO1+ cells but not NQO1− cells, 3 h exposure, CellRox-Glo", "value": "High level of H2O2"},
      {"measurement": "ROS level", "setting": "ROS; NQO1 null lines", "value": "much less"},
      {"measurement": "ROS level", "setting": "ROS; NQO1 positive murine tumor line", "value": "high level of ROS"}
    ]}
  ]
}
